In PubChem BioAssay AID258 (DTP/NCI, 2004):
Where “and” joins values, the source holds several entries; their conditions need not be identical. Equal entries are not always repeated. Inconclusive results and toxic doses are left out.

System: CD2F1 mice, L1210 leukemia sc, survival T/C
Assay: NCI In Vivo Anticancer Drug Screen. Data for tumor model L1210 Leukemia (subcutaneous) in CD2F1 (CDF1) mice
Details: endpoint: median survival time, higher = longer survival
Method: The antitumor activity of compounds was measured in mice bearing transplantable tumors. Survival or tumor size were measured and the results are expressed as the measurement made in the treated group (T) divided by the measurement made in the vehicle treated control group (C). The tumor model used in this assay is L1210 Leukemia (subcutaneous) in CD2F1 (CDF1) mice

Structure (SMILES): O=c1n(CC2CO2)c(=O)n(CC2CO2)c(=O)n1CC1CO1 (stereo not drawn)
- T/C (dose: 12.5 mg/kg/injection, schedule: Q04DX003 (ip), vehicle: saline): 106 % of control
- T/C (dose: 25.0 mg/kg/injection, schedule: Q04DX003 (ip), vehicle: saline): 114 % of control
- T/C (dose: 40.0 mg/kg/injection, schedule: Q01DX009 (ip), vehicle: saline): 150 % of control and 191 % of control
- T/C (dose: 40.0 mg/kg/injection, schedule: Q04DX003 (ip), vehicle: saline): 114 % of control
- T/C (dose: 50.0 mg/kg/injection, schedule: Q01DX009 (ip), vehicle: saline): 172 % of control and 193 % of control
- T/C (dose: 50.0 mg/kg/injection, schedule: Q04DX003 (ip), vehicle: saline): 153 % of control and 172 % of control

Structure (SMILES): Nc1c(/C=C/c2cc3cc(C4=NCCN4)ccc3o2)[nH]c2cc(C3=NCCN3)ccc12
- T/C (dose: 3.12 mg/kg/injection, schedule: Q01DX009 (ip), vehicle: Klucel (hydroxypropylcellulose) (HPC)): 100 % of control
- T/C (dose: 6.25 mg/kg/injection, schedule: Q01DX009 (ip), vehicle: Klucel (hydroxypropylcellulose) (HPC)): 100 % of control
- T/C (dose: 12.5 mg/kg/injection, schedule: Q01DX009 (ip), vehicle: Klucel (hydroxypropylcellulose) (HPC)): 96 % of control
- T/C (dose: 25.0 mg/kg/injection, schedule: Q01DX009 (ip), vehicle: Klucel (hydroxypropylcellulose) (HPC)): 106 % of control

Structure (SMILES): CCOC(=O)c1c[nH]c2oc(/C=N/N3CC(CN4CCOCC4)OC3=O)cc2c1=O (stereo not drawn)
- T/C (dose: 25.0 mg/kg/injection, schedule: Q01DX009 (ip), vehicle: acid diluted with saline): 101 % of control
- T/C (dose: 50.0 mg/kg/injection, schedule: Q01DX009 (ip), vehicle: acid diluted with saline): 109 % of control
- T/C (dose: 50.0 mg/kg/injection, schedule: Q01DX009 (ip), vehicle: other): 102 % of control
- T/C (dose: 79.0 mg/kg/injection, schedule: Q01DX005 (ip), vehicle: other): 108 % of control and 111 % of control
- T/C (dose: 100.0 mg/kg/injection, schedule: Q01DX009 (ip), vehicle: acid diluted with saline): 110 % of control
- T/C (dose: 118.7 mg/kg/injection, schedule: Q01DX005 (ip), vehicle: other): 109 % of control and 119 % of control
- T/C (dose: 178.0 mg/kg/injection, schedule: Q01DX005 (ip), vehicle: other): 113 % of control
- T/C (dose: 200.0 mg/kg/injection, schedule: Q01DX009 (ip), vehicle: acid diluted with saline): 155 % of control
- T/C (dose: 400.0 mg/kg/injection, schedule: Q01DX005 (ip), vehicle: other): 198 % of control
- T/C (dose: 400.0 mg/kg/injection, schedule: Q01DX009 (ip), vehicle: acid diluted with saline): 156 % of control

Structure (SMILES): CCOC(=O)C(CC(C)C)NC(=O)C(Cc1ccc(N(CCCl)CCCl)cc1)NC(C)=O (stereo not drawn)
- T/C (dose: 1.0 mg/kg/injection, schedule: Q01DX009 (sc), vehicle: Klucel (hydroxypropylcellulose) (HPC)): 102 % of control and 103 % of control
- T/C (dose: 2.0 mg/kg/injection, schedule: Q01DX009 (sc), vehicle: Klucel (hydroxypropylcellulose) (HPC)): 103 % of control and 98 % of control
- T/C (dose: 4.0 mg/kg/injection, schedule: Q01DX009 (sc), vehicle: Klucel (hydroxypropylcellulose) (HPC)): 104 % of control and 105 % of control
- T/C (dose: 8.0 mg/kg/injection, schedule: Q01DX009 (sc), vehicle: Klucel (hydroxypropylcellulose) (HPC)): 107 % of control and 98 % of control
- T/C (dose: 16.0 mg/kg/injection, schedule: Q01DX009 (sc), vehicle: Klucel (hydroxypropylcellulose) (HPC)): 103 % of control and 109 % of control
- T/C (dose: 28.5 mg/kg/injection, schedule: Q01DX009 (sc), vehicle: Klucel (hydroxypropylcellulose) (HPC)): 110 % of control
- T/C (dose: 32.0 mg/kg/injection, schedule: Q01DX009 (sc), vehicle: Klucel (hydroxypropylcellulose) (HPC)): 100 % of control and 112 % of control
- T/C (dose: 42.7 mg/kg/injection, schedule: Q01DX009 (sc), vehicle: Klucel (hydroxypropylcellulose) (HPC)): 121 % of control
- T/C (dose: 64.0 mg/kg/injection, schedule: Q01DX009 (sc), vehicle: Klucel (hydroxypropylcellulose) (HPC)): 118 % of control and 124 % of control
- T/C (dose: 113.8 mg/kg/injection, schedule: Q01DX009 (sc), vehicle: Klucel (hydroxypropylcellulose) (HPC)): 113 % of control
- T/C (dose: 128.0 mg/kg/injection, schedule: Q01DX009 (sc), vehicle: Klucel (hydroxypropylcellulose) (HPC)): 113 % of control and 122 % of control
- T/C (dose: 170.7 mg/kg/injection, schedule: Q01DX009 (sc), vehicle: Klucel (hydroxypropylcellulose) (HPC)): 120 % of control
- T/C (dose: 384.0 mg/kg/injection, schedule: Q01DX009 (sc), vehicle: Klucel (hydroxypropylcellulose) (HPC)): 158 % of control
